Our source for the IC50 values is US20250163104A1, “MACROCYCLIC IMMUNOMODULATORS” (priority 2021, published 2025).

This experiment has as its target T1, human PD-1 / PD-L1-Ig binding on Jurkat cell line over-expressing human PD-1 (Jurkat-PD-1) (Homo sapiens, UniProt Q15116).
T1 construct: expressed in transfected cells; host or cells: Jurkat
As to the kind of experiment: Jurkat-PD-1 Cell Binding High-Content Screening Assay (CBA). The format is cell-based. The note with it: Jurkat-PD-1 cells, PE-labeled PD-L1-Ig 20 nM final; read-out: Jurkat HPD1_PDL1 IC50. Summed up:
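Read-out: high-content imaging of PE-tagged PD-L1-Ig bound to Jurkat cells overexpressing human PD-1, after fixation with 4% paraformaldehyde and Hoechst 33342 nuclear staining. Ligand was used at 20 nM final for 1 hour, after a 2 h compound exposure at 37° C in serum-containing DMEM.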

Where a SMILES comes first, the peptide text is derived from it. Bridges are numbered along the chain shown (N, C = ends). [ ]: non-standard residue; d: D form. The star is where a group is joined. ξ: configuration not given here. Phe(4-COOH) = N[C@@H](Cc1ccc(C(=O)O)cc1)C(=O)O; Bip = N[C@@H](Cc1ccc(-c2ccccc2)cc1)C(=O)O; Phe(2-CN) = N#Cc1ccccc1C[C@H](N)C(=O)O; Phe(3-Me) = Cc1cccc(C[C@H](N)C(=O)O)c1; Val(3-OH) = CC(C)(O)[C@H](N)C(=O)O; 3Pal = N[C@@H](Cc1cccnc1)C(=O)O; 4Pal = N[C@@H](Cc1ccncc1)C(=O)O; Cha = N[C@@H](CC1CCCCC1)C(=O)O; Cit = NC(=O)NCCC[C@H](N)C(=O)O; Ile(3ξ) = CCC(C)[C@H](N)C(=O)O; Thr(3ξ) = CC(O)[C@H](N)C(=O)O; NMeDab = CN[C@@H](CCN)C(=O)O; Hpra = C#CCC[C@H](N)C(=O)O; Carboxymethyl = O=C(O)C*; Orn = NCCC[C@H](N)C(=O)O; Pra = C#CC[C@H](N)C(=O)O; Dab = NCC[C@H](N)C(=O)O; Dap = NC[C@H](N)C(=O)O; Piv = CC(C)(C)C(=O)*

T1 sequence (Q15116 25-288): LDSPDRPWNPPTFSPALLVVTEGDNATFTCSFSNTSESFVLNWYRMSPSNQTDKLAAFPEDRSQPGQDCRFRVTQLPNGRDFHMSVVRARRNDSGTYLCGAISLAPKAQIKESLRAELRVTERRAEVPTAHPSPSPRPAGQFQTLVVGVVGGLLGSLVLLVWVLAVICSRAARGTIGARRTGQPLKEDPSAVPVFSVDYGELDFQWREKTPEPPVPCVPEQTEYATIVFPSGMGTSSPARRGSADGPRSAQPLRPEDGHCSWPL

With `Cc1cccc(C[C@@H]2NC(=O)[C@H](CC(=O)O)NC(=O)[C@H](Cc3ccc(OCC(=O)O)cc3)NC(=O)[C@H](CN)NC(=O)CSC[C@@H](C(=O)N[C@@H](C)C(N)=O)NC(=O)[C@H](CN)NC(=O)[C@H](C(C)C)NC(=O)[C@H](CC3CCCCC3)NC(=O)[C@H](CCN)NC(=O)[C@@H](CC(C)C)NC(=O)[C@H](CCCN)NC(=O)[C@H](C(C)C)NC(=O)[C@H](Cc3ccc(-c4ccccc4)cc3)NC(=O)[C@H](C(C)C)NC2=O)c1` [Compound 1753] ({CH2CO}-[Dap]Y(Carboxymethyl)D[Phe(3-Me)]V[Bip]V[Orn][dL][Dab][Cha]V[Dap]CA-NH2; thioether N-14), the IC50 (usually the concentration that inhibits the measured activity by half) came to 5.1 nM.

`Cc1cccc(C[C@@H]2NC(=O)[C@H](CC(=O)O)NC(=O)[C@H](Cc3ccc(OCC(=O)O)cc3)NC(=O)[C@H](CCNC(=O)C(C)(C)C)NC(=O)CSC[C@@H](C(=O)N[C@@H](CCN)C(N)=O)NC(=O)[C@H](CCCN)NC(=O)[C@H](C(C)C)NC(=O)[C@H](CC3CCCCC3)NC(=O)[C@H](CCN)NC(=O)[C@@H](CC(C)C)NC(=O)[C@H](CCCN)NC(=O)[C@H](Cc3ccc(O)cc3)NC(=O)[C@H](Cc3ccc(-c4ccccc4)cc3)NC(=O)[C@H](Cc3ccc(O)cc3)NC2=O)c1` [Compound 2040] ({CH2CO}-[Dab](Piv)Y(Carboxymethyl)D[Phe(3-Me)]Y[Bip]Y[Orn][dL][Dab][Cha]V[Orn]C[Dab]-NH2; thioether N-14): the IC50 amounted to 4.9 nM.

For `CC(C)C[C@@H]1NC(=O)[C@H](CCCCN)NC(=O)[C@@H](CC(C)C)NC(=O)[C@H](CCN)NC(=O)[C@H](Cc2cnc[nH]2)NC(=O)[C@H](Cc2ccc(-c3ccccc3)cc2)NC(=O)[C@H](C(C)C)NC(=O)[C@H](Cc2c[nH]c3ccccc23)NC(=O)[C@H](CC(=O)O)NC(=O)[C@H](Cc2ccc(O)cc2)NC(=O)[C@H](CC(N)=O)NC(=O)CSC[C@@H](C(=O)N[C@@H](C)C(N)=O)NC(=O)[C@H]([C@@H](C)O)NC(=O)[C@H](C(C)C)NC1=O` [Compound 1137] ({CH2CO}-NYDWV[Bip]H[Dab][dL]KLVTCA-NH2; thioether N-14), the IC50 stood at 47 nM.

As for `CCC(C)[C@@H]1NC(=O)[C@H](Cc2ccc(-c3ccccc3)cc2)NC(=O)[C@H](C(C)C)NC(=O)[C@H](Cc2c[nH]c3ccccc23)NC(=O)[C@H](CC(=O)O)NC(=O)[C@H](Cc2ccc(OCC(=O)O)cc2)NC(=O)[C@H](CCN)N(C)C(=O)CSC[C@@H](C(=O)N[C@@H](C)C(N)=O)NC(=O)[C@H](CO)NC(=O)[C@H](C(C)C)NC(=O)[C@H](CC2CCCCC2)NC(=O)[C@H](CCN)NC(=O)[C@@H](CC(C)C)NC(=O)[C@H](CCCN)NC1=O` (stereo partly drawn) [Compound 2517] ({CH2CO}-[NMeDab]Y(Carboxymethyl)DWV[Bip][Ile(3ξ)][Orn][dL][Dab][Cha]VSCA-NH2; thioether N-14), the IC50 came to 3.4 nM.

On to `C#CC[C@H](NC(=O)[C@@H](C)NC(=O)[C@@H]1CSCC(=O)N[C@@H](Cc2c[nH]cn2)C(=O)N[C@@H](Cc2ccc(OCC(=O)O)cc2)C(=O)N[C@@H](CC(=O)O)C(=O)N[C@@H](Cc2c[nH]c3ccccc23)C(=O)N[C@@H](C(C)C)C(=O)N[C@@H](Cc2ccc(-c3ccccc3)cc2)C(=O)N[C@@H](C(C)C)C(=O)N[C@@H](CCCN)C(=O)N[C@H](CC(C)C)C(=O)N[C@@H](CCN)C(=O)N[C@@H](CC2CCCCC2)C(=O)N[C@@H](C(C)(C)O)C(=O)N[C@@H](CO)C(=O)N1)C(N)=O` [Compound 2327] ({CH2CO}-HY(Carboxymethyl)DWV[Bip]V[Orn][dL][Dab][Cha][Val(3-OH)]SC[dA][Pra]-NH2; thioether N-14), for which the IC50 was 8.5 nM.

As for `CC(C)C[C@@H]1NC(=O)[C@H](Cc2c[nH]c3ccccc23)NC(=O)[C@H](CC(=O)O)NC(=O)[C@H](Cc2ccc(O)cc2)NC(=O)[C@H](Cc2ccccc2)NC(=O)CSC[C@@H](C(=O)NCC(N)=O)NC(=O)[C@H]([C@@H](C)O)NC(=O)[C@H](C(C)C)NC(=O)[C@H](CC(C)C)NC(=O)[C@H](CCN)NC(=O)[C@@H](C)NC(=O)[C@H](CCN)NC(=O)[C@H](C(C)C)NC(=O)[C@H](Cc2ccc(-c3ccccc3)cc2)NC1=O` [Compound 1103] ({CH2CO}-FYDWL[Bip]V[Dab][dA][Dab]LVTCG-NH2; thioether N-14), the IC50 amounted to 112 nM.

As for `Cc1cccc(C[C@@H]2NC(=O)[C@H](CC(=O)O)NC(=O)[C@H](Cc3ccc(C(=O)O)cc3)NC(=O)[C@H](Cc3ccncc3)NC(=O)CSC[C@@H](C(=O)N[C@@H](CCN)C(N)=O)NC(=O)[C@H](CO)NC(=O)[C@H](C(C)C)NC(=O)[C@H](CC3CCCCC3)NC(=O)[C@H](CCN)NC(=O)[C@@H](CC(C)C)NC(=O)[C@H](CCCN)NC(=O)[C@H](Cc3ccc(OCC(=O)O)cc3)NC(=O)[C@H](Cc3ccc(-c4ccccc4)cc3)NC(=O)[C@H](Cc3ccc(OCC(=O)O)cc3)NC2=O)c1` [Compound 2307] ({CH2CO}-[4Pal][Phe(4-COOH)]D[Phe(3-Me)]Y(Carboxymethyl)[Bip]Y(Carboxymethyl)[Orn][dL][Dab][Cha]VSC[Dab]-NH2; thioether N-14), the IC50 was 12.1 nM.

With `CC(C)C[C@H]1NC(=O)[C@H](CCCN)NC(=O)[C@H](CCC(=O)O)NC(=O)[C@H](Cc2ccc(-c3ccccc3)cc2)NC(=O)[C@H](C(C)C)NC(=O)[C@H](Cc2c[nH]c3ccccc23)NC(=O)[C@H](CC(=O)O)NC(=O)[C@H](Cc2ccc(OCC(=O)O)cc2)NC(=O)[C@H](CN)NC(=O)CSC[C@@H](C(=O)N[C@@H](C)C(N)=O)NC(=O)[C@H]([C@@H](C)O)NC(=O)[C@H](C(C)C)NC(=O)[C@H](Cc2ccccc2C#N)NC(=O)[C@H](CCN)NC1=O` [Compound 1487] ({CH2CO}-[Dap]Y(Carboxymethyl)DWV[Bip]E[Orn][dL][Dab][Phe(2-CN)]VTCA-NH2; thioether N-14), the IC50 is 268 nM.

Regarding `CC(C)C[C@@H]1NC(=O)[C@H](Cc2c[nH]c3ccccc23)NC(=O)[C@H](CC(=O)O)NC(=O)[C@H](Cc2ccc(O)cc2)NC(=O)[C@H](Cc2ccccc2)NC(=O)CSC[C@@H](C(=O)NCC(N)=O)NC(=O)[C@H](CO)NC(=O)[C@H](C(C)C)NC(=O)[C@H](CC(C)C)NC(=O)[C@H](CCN)NC(=O)[C@@H](C)NC(=O)[C@H](CCN)NC(=O)[C@H](C(C)C)NC(=O)[C@H](Cc2ccc(-c3ccccc3)cc2)NC1=O` [Compound 1106] ({CH2CO}-FYDWL[Bip]V[Dab][dA][Dab]LVSCG-NH2; thioether N-14), the IC50 turned out to be 66.7 nM.

Regarding `Cc1cccc(C[C@@H]2NC(=O)[C@H](CC(=O)O)NC(=O)[C@H](Cc3ccc(OCC(=O)O)cc3)NC(=O)[C@H](Cc3cccnc3)NC(=O)CSC[C@@H](C(N)=O)NC(=O)[C@H]([C@@H](C)O)NC(=O)[C@H](C(C)C)NC(=O)[C@H](CC(C)C)NC(=O)[C@H](CCN)NC(=O)[C@@H](CC(C)C)NC(=O)[C@H](CCCN)NC(=O)[C@H](CCCNC(N)=O)NC(=O)[C@H](Cc3ccc(-c4ccccc4)cc3)NC(=O)[C@H](C(C)C)NC2=O)c1` [Compound 1655] ({CH2CO}-[3Pal]Y(Carboxymethyl)D[Phe(3-Me)]V[Bip][Cit][Orn][dL][Dab]LVTC-NH2; thioether N-14), the IC50 stood at 280 nM.

`C#CCC[C@@H]1NC(=O)[C@H](CC2CCCCC2)NC(=O)[C@H](CCN)NC(=O)[C@@H](CC(C)C)NC(=O)[C@H](CCCN)NC(=O)[C@H](C(C)C)NC(=O)[C@H](Cc2ccc(-c3ccccc3)cc2)NC(=O)[C@H](C(C)C)NC(=O)[C@H](Cc2cccc(C)c2)NC(=O)[C@H](CC(=O)O)NC(=O)[C@H](Cc2ccc(C(=O)O)cc2)NC(=O)[C@H](CN)NC(=O)CSC[C@@H](C(=O)N[C@@H](CCN)C(N)=O)NC(=O)[C@H]([C@@H](C)O)NC1=O` [Compound 2027] ({CH2CO}-[Dap][Phe(4-COOH)]D[Phe(3-Me)]V[Bip]V[Orn][dL][Dab][Cha][Hpra]TC[Dab]-NH2; thioether N-14): the IC50 was 10.3 nM.

Regarding `CC(C)C[C@@H]1NC(=O)[C@H](Cc2c[nH]c3ccccc23)NC(=O)[C@H](CC(=O)O)NC(=O)[C@H](Cc2ccc(OCC(=O)O)cc2)NC(=O)[C@H](Cc2ccc(OCC(=O)O)cc2)NC(=O)CSC[C@@H](C(=O)NCC(N)=O)NC(=O)[C@H](CO)NC(=O)[C@H](C(C)C)NC(=O)[C@H](CC(C)C)NC(=O)[C@H](CC(N)=O)NC(=O)[C@@H](CC(C)C)NC(=O)[C@H](CN)NC(=O)[C@H](C(C)C)NC(=O)[C@H](Cc2ccc(-c3ccccc3)cc2)NC1=O` [Compound 1291] ({CH2CO}-Y(Carboxymethyl)Y(Carboxymethyl)DWL[Bip]V[Dap][dL]NLVSCG-NH2; thioether N-14), the IC50 was 12.1 nM.

Regarding `CC(C)C[C@H]1NC(=O)[C@H](CCCN)NC(=O)[C@H](C(C)C)NC(=O)[C@H](Cc2ccc(-c3ccccc3)cc2)NC(=O)[C@H](C(C)C)NC(=O)[C@H](Cc2c[nH]c3ccccc23)NC(=O)[C@H](CC(=O)O)NC(=O)[C@H](Cc2ccc(OCC(=O)O)cc2)NC(=O)[C@H](CCCNC(=N)N)NC(=O)CSC[C@@H](C(=O)N[C@@H](C)C(N)=O)NC(=O)[C@H](C(C)O)NC(=O)[C@H](C(C)C)NC(=O)[C@H](CC2CCCCC2)NC(=O)[C@H](CCN)NC1=O` (stereo partly drawn) [Compound 2530] ({CH2CO}-RY(Carboxymethyl)DWV[Bip]V[Orn][dL][Dab][Cha]V[Thr(3ξ)]CA-NH2; thioether N-14), the IC50 is 8.5 nM.

In the case of `CC(C)C[C@@H]1NC(=O)[C@H](Cc2c[nH]c3ccccc23)NC(=O)[C@H](CC(=O)O)NC(=O)[C@H](Cc2ccncc2)NC(=O)[C@H](Cc2ccc(OCC(=O)O)cc2)NC(=O)CSC[C@@H](C(=O)NCC(N)=O)NC(=O)[C@H](CO)NC(=O)[C@H](C(C)C)NC(=O)[C@H](CC2CCCCC2)NC(=O)[C@H](CC(N)=O)NC(=O)[C@@H](CC(C)C)NC(=O)[C@H](CN)NC(=O)[C@H](C(C)C)NC(=O)[C@H](Cc2ccc(-c3ccccc3)cc2)NC1=O` [Compound 1396] ({CH2CO}-Y(Carboxymethyl)[4Pal]DWL[Bip]V[Dap][dL]N[Cha]VSCG-NH2; thioether N-14), the IC50 worked out at 21.4 nM.
